Data published in patent US11623940B2, “Methods of nucleic acid synthesis comprising polyphosphate containing species” (Nuclera Nucleics Ltd., priority 2017, dated 2023).
Entries after “also recorded” stand apart in the source; their conditions may differ.

Experiments:
terminal transferase [1] = test: Terminal transferase-mediated addition of capping polyphosphate species to initiator strand (denaturing polyacrylamide gel); assay type: biochemical; settings: for conversion of initiator strand of length N by terminal transferase-mediated addition: FIG. 1 lanes 2 and 3
Source text: (§1) FIG. 1: Incorporation of dideoxynucleoside triphosphates by a terminal transferase prevents subsequent DNA synthesis. Lane 1: initiator sequence; Lane 2: dideoxyadenosine triphosphate addition; Lane 3: dideoxythymidine triphosphate addition; Lanes 4-6: duplicates of lanes 1-3 exposed to dCTP tailing conditions; Lane 7: initiator sequence. While dCTP tailing leads to the formation of a range of higher molecular weight products (Lane 4), prior treatment with a terminal transferase and dideoxynucleoside triphosphate prevents the formation of such higher molecular weight species (Lanes 5 and 6).
FIG. 2: Incorporation of tripolyphosphate by a terminal transferase prevents subsequent DNA synthesis. Lane 1: initiator sequence; Lane 2: 1 mM sodium tripolyphosphate; Lane 3: 10 mM sodium tripolyphosphate; Lane 4: 50 mM sodium tripolyphosphate; Lanes 5-7: duplicates of lanes 2-4 exposed to dCTP tailing conditions. Reaction products were analysed by denaturing polyacrylamide gel and visualized by an internal FAM dye.
(§2) Data is presented herein which exemplifies the utility of dideoxynucleoside triphosphates as a capping agent by incorporating a dideoxynucleotide using a terminal transferase, and so preventing polymerization of deoxycytidine triphosphate (dCTP) in a subsequent step with terminal transferase (FIG. 1). […] When the initiator strand is exposed to terminal transferase in the presence of dCTP, many higher molecular weight products are formed (a smear on the gel) due to the uncontrolled incorporation of dCTP into the initiator strand (lane 4). […] Lane 7 is a duplicate of lane 1.
(§3) Data is presented herein which exemplifies the utility of tripolyphosphate as a capping agent by incorporating a phosphate moiety on the 3′-terminus of an oligonucleotide using a terminal transferase, and so preventing polymerization of dCTP in a subsequent step with terminal transferase (FIG. 2). […] The new species migrates faster on the polyacrylamide gel due to the additional charge presented by the new 3′-phosphate moiety. […] Following incubation with the terminal transferase and tripolyphosphate, the mixture was removed. The initiator strand was then incubated with a terminal transferase and canonical dCTP. If a free 3′-hydroxyl is present, terminal transferase will add many dCTP in an uncontrolled fashion to generate higher molecular weight oligonucleotides.

terminal transferase [2] = test: dCTP tailing with terminal transferase after capping pre-treatment of initiator strand (gel); assay type: biochemical; settings: for incorporation of dCTP into pre-treated initiator strand when exposed to terminal transferase and dCTP: FIG. 1 lanes 5 and 6, pre-treated with dideoxynucleoside triphosphate
Source text: as §1
FIG. 2: Incorporation of tripolyphosphate by a terminal transferase prevents subsequent DNA synthesis. […] Reaction products were analysed by denaturing polyacrylamide gel and visualized by an internal FAM dye.
as §2, §3

Row | Compound | conversion of initiator strand of length N by terminal transferase-mediated addition (terminal transferase [1]) | incorporation of dCTP into pre-treated initiator strand when exposed to terminal transferase and dCTP (terminal transferase [2]) | terminal transferase mediated 3′-phosphorylation of initiator strand (terminal transferase [1]; 1 mM tripolyphosphate, FIG. 2 lane 2) | terminal transferase mediated 3′-phosphorylation of initiator strand (terminal transferase [1]; 5 mM tripolyphosphate, FIG. 2 lane 3) | terminal transferase mediated 3′-phosphorylation of initiator sequence (terminal transferase [1]; 10 mM sodium tripolyphosphate, FIG. 2 lane 3 (figure legend)) | terminal transferase mediated 3′-phosphorylation of initiator strand (terminal transferase [1]; 50 mM tripolyphosphate, FIG. 2 lane 4) | dCTP polymerization by terminal transferase after capping pre-incubation (terminal transferase [2]; pre-incubation with 1 mM tripolyphosphate, FIG. 2 lane 5) | dCTP polymerization by terminal transferase after capping pre-incubation (terminal transferase [2]; pre-incubation with 5 mM tripolyphosphate, FIG. 2 lane 6) | dCTP polymerisation by terminal transferase after capping pre-incubation (terminal transferase [2]; pre-incubation with 10 mM sodium tripolyphosphate, FIG. 2 lane 6 (figure legend)) | dCTP polymerization by terminal transferase after capping pre-incubation (terminal transferase [2]; pre-incubation with 50 mM tripolyphosphate, FIG. 2 lane 7)
1 | Nc1ncnc2c1ncn2[C@H]1CC[C@@H](COP(=O)(O)OP(=O)(O)OP(=O)(O)O)O1 [ddATP, dideoxyadenosine triphosphate] | converted to an N+1 species | resistant to incorporation of dCTP |  |  |  |  |  |  |  | 
2 | dideoxythymidine triphosphate [ddTTP] | converted to an N+1 species | resistant to incorporation of dCTP |  |  |  |  |  |  |  | 
3 | sodium tripolyphosphate |  |  | partially converted to a new 3′-phosphorylated species; also recorded: converted to a 3′-phosphorylated initiator sequence | partially converted to a new 3′-phosphorylated species | converted to a 3′-phosphorylated initiator sequence | does not proceed | largely prevents this polymerization; also recorded: resistant to enzyme mediated DNA polymerisation | largely prevents this polymerization | resistant to enzyme mediated DNA polymerisation | complete polymerization to higher molecular weight species
